Several values for one entry are separate records, joined by “and”; a condition that tells them apart may be missing. Identical values can stand only once. Inconclusive results and toxic doses are left out. The calls were made as follows: active = survival T/C of 150% or more; inactive = T/C below 125% in these data.
Tested on: CD2F1 mice, L1210 leukemia ip, survival T/C
Test: NCI In Vivo Anticancer Drug Screen. Data for tumor model L1210 Leukemia (intraperitoneal) in CD2F1 (CDF1) mice
Conditions: higher = longer survival
Method: The antitumor activity of compounds was measured in mice bearing transplantable tumors. Survival or tumor size were measured and the results are expressed as the measurement made in the treated group (T) divided by the measurement made in the vehicle treated control group (C). The tumor model used in this assay is L1210 Leukemia (intraperitoneal) in CD2F1 (CDF1) mice

[1] = endpoint: mean survival time, dose: 12.5 mg/kg/injection, schedule: Q01DX009 (ip), vehicle: saline with Tween-80
[2] = endpoint: mean survival time, dose: 25.0 mg/kg/injection, schedule: Q01DX009 (ip), vehicle: saline with Tween-80
[3] = endpoint: mean survival time, dose: 50.0 mg/kg/injection, schedule: Q01DX009 (ip), vehicle: saline with Tween-80
[4] = endpoint: mean survival time, dose: 100.0 mg/kg/injection, schedule: Q01DX009 (ip), vehicle: saline with Tween-80
[5] = endpoint: mean survival time, dose: 200.0 mg/kg/injection, schedule: Q01DX009 (ip), vehicle: saline with Tween-80
[6] = endpoint: mean survival time, dose: 400.0 mg/kg/injection, schedule: Q01DX009 (ip), vehicle: saline with Tween-80
[7] = endpoint: mean survival time, dose: 100.0 mg/kg/injection, schedule: Q04DX003 (ip), vehicle: saline with Tween-80
[8] = endpoint: mean survival time, dose: 200.0 mg/kg/injection, schedule: Q04DX003 (ip), vehicle: saline with Tween-80
[9] = endpoint: mean survival time, dose: 400.0 mg/kg/injection, schedule: Q04DX003 (ip), vehicle: saline with Tween-80

Measured: T/C

O=C(CCl)Nc1ccccn1
inactive: endpoint: mean survival time, dose: 100.0 mg/kg/injection, schedule: Q01DX009 (ip), vehicle: saline 96 % of control | endpoint: mean survival time, dose: 200.0 mg/kg/injection, schedule: Q01DX009 (ip), vehicle: saline 102 % of control | endpoint: mean survival time, dose: 400.0 mg/kg/injection, schedule: Q01DX009 (ip), vehicle: saline 97 % of control

CCOP(=O)(C/C(=N\Nc1ccc([N+](=O)[O-])cc1[N+](=O)[O-])c1ccccc1)c1ccccc1 (stereo not given)
inactive: endpoint: mean survival time, dose: 100.0 mg/kg/injection, schedule: Q01DX001 (ip), vehicle: saline with Tween-80 90 % of control | endpoint: mean survival time, dose: 200.0 mg/kg/injection, schedule: Q01DX001 (ip), vehicle: saline with Tween-80 92 % of control | endpoint: mean survival time, dose: 400.0 mg/kg/injection, schedule: Q01DX001 (ip), vehicle: saline with Tween-80 97 % of control

BrC1c2cccc3cccc(c23)C1Br (stereo not given)
inactive: endpoint: mean survival time, dose: 6.25 mg/kg/injection, schedule: Q01DX009 (ip), vehicle: saline with Tween-80 115 % of control | [1] 108 % of control | [2] 115 % of control and 106 % of control | [3] 115 % of control and 105 % of control | [4] 100 % of control and 112 % of control | [5] 110 % of control

[Cl][Pt][Cl].[NH-]CC[NH-].[NH-]CC[NH-]
inactive: endpoint: mean survival time, dose: 12.5 mg/kg/injection, schedule: Q04DX003 (ip), vehicle: water 92 % of control and 100 % of control and 95 % of control | endpoint: mean survival time, dose: 25.0 mg/kg/injection, schedule: Q04DX003 (ip), vehicle: water 88 % of control and 89 % of control and 100 % of control | endpoint: mean survival time, dose: 50.0 mg/kg/injection, schedule: Q04DX003 (ip), vehicle: water 95 % of control and 97 % of control | endpoint: mean survival time, dose: 100.0 mg/kg/injection, schedule: Q04DX003 (ip), vehicle: water 90 % of control and 91 % of control and 95 % of control | endpoint: mean survival time, dose: 200.0 mg/kg/injection, schedule: Q04DX003 (ip), vehicle: water 95 % of control and 93 % of control

O=[N+]([O-])c1ccc(/C=C/c2ccc([N+](=O)[O-])cc2S(=O)(=O)O)c(S(=O)(=O)O)c1
inactive: [4] 102 % of control | [5] 105 % of control | [6] 94 % of control

CNC(=O)Nc1cccc(OS(=O)(=O)N(C)C)c1
inactive: [4] 92 % of control | [5] 95 % of control | [6] 95 % of control

Cc1ccc(O[Si](C)(C)C)cc1
inactive: [4] 100 % of control | [7] 103 % of control | [8] 87 % of control | [9] 89 % of control

CN1C2CCC1CNC2
inactive: [7] 103 % of control | [8] 101 % of control | [9] 103 % of control

Br/C(C=Nc1ccccc1)=C\Nc1ccccc1
inactive: [4] 102 % of control | [7] 101 % of control | [5] 86 % of control | [8] 108 % of control | [6] 86 % of control | [9] 108 % of control

COc1ccc(-c2csc(=[N+]3CCCCC3)s2)cc1
inactive: endpoint: mean survival time, dose: 1.56 mg/kg/injection, schedule: Q01DX009 (ip), vehicle: water 94 % of control and 102 % of control | endpoint: mean survival time, dose: 3.12 mg/kg/injection, schedule: Q01DX009 (ip), vehicle: water 96 % of control and 102 % of control | endpoint: mean survival time, dose: 6.25 mg/kg/injection, schedule: Q01DX009 (ip), vehicle: water 96 % of control and 98 % of control | endpoint: mean survival time, dose: 12.5 mg/kg/injection, schedule: Q01DX009 (ip), vehicle: water 98 % of control and 106 % of control | endpoint: mean survival time, dose: 25.0 mg/kg/injection, schedule: Q01DX009 (ip), vehicle: water 113 % of control and 109 % of control

COc1ccc(C(=O)C(CN(C)C)CN(C)C)cc1
inactive: endpoint: median survival time, dose: 3.12 mg/kg/injection, schedule: Q01DX009 (ip), vehicle: saline 96 % of control | endpoint: median survival time, dose: 6.25 mg/kg/injection, schedule: Q01DX009 (ip), vehicle: saline 103 % of control | endpoint: median survival time, dose: 12.5 mg/kg/injection, schedule: Q01DX009 (ip), vehicle: saline 104 % of control | endpoint: median survival time, dose: 25.0 mg/kg/injection, schedule: Q01DX009 (ip), vehicle: saline 114 % of control

[Cl][Pt+2][Cl].[NH-]Nc1nc2ccccc2s1.[NH-]Nc1nc2ccccc2s1
inactive: endpoint: mean survival time, dose: 5.0 mg/kg/injection, schedule: Q04DX003 (ip), vehicle: saline with Tween-80 102 % of control | endpoint: mean survival time, dose: 10.0 mg/kg/injection, schedule: Q04DX003 (ip), vehicle: saline with Tween-80 98 % of control | endpoint: mean survival time, dose: 20.0 mg/kg/injection, schedule: Q04DX003 (ip), vehicle: saline with Tween-80 94 % of control | endpoint: mean survival time, dose: 40.0 mg/kg/injection, schedule: Q04DX003 (ip), vehicle: saline with Tween-80 98 % of control | endpoint: mean survival time, dose: 80.0 mg/kg/injection, schedule: Q04DX003 (ip), vehicle: saline with Tween-80 94 % of control

Nc1nc2c(C(=O)N3CCCC3)nnn2c2ccccc12
inactive: endpoint: median survival time, dose: 6.25 mg/kg/injection, schedule: Q01DX009 (ip), vehicle: saline with Tween-80 100 % of control | endpoint: median survival time, dose: 12.5 mg/kg/injection, schedule: Q01DX009 (ip), vehicle: saline with Tween-80 98 % of control | endpoint: median survival time, dose: 25.0 mg/kg/injection, schedule: Q01DX009 (ip), vehicle: saline with Tween-80 97 % of control | endpoint: median survival time, dose: 50.0 mg/kg/injection, schedule: Q01DX009 (ip), vehicle: saline with Tween-80 95 % of control | endpoint: median survival time, dose: 100.0 mg/kg/injection, schedule: Q01DX009 (ip), vehicle: saline with Tween-80 95 % of control

Cc1ccc(C2=C(O)C(=O)C(c3ccc(C)cc3)C2=O)cc1 (stereo not given)
inactive: [7] 93 % of control | [8] 96 % of control

Cc1nc2ccc(CCN3CCN(c4ccccc4Cl)CC3)cc2[nH]1
inactive: endpoint: mean survival time, dose: 50.0 mg/kg/injection, schedule: Q04DX003 (ip), vehicle: Klucel (hydroxypropylcellulose) (HPC) 112 % of control

CCSC(CC(OC(C)=O)C(OC(C)=O)C(COC(C)=O)OC(C)=O)n1cnc2c(Cl)ncnc21 (stereo not given)
inactive: endpoint: mean survival time, dose: 12.5 mg/kg/injection, schedule: Q01DX005 (ip), vehicle: other 98 % of control | endpoint: mean survival time, dose: 25.0 mg/kg/injection, schedule: Q01DX005 (ip), vehicle: other 96 % of control | endpoint: mean survival time, dose: 50.0 mg/kg/injection, schedule: Q01DX005 (ip), vehicle: other 95 % of control | endpoint: mean survival time, dose: 100.0 mg/kg/injection, schedule: Q01DX005 (ip), vehicle: other 104 % of control | endpoint: mean survival time, dose: 200.0 mg/kg/injection, schedule: Q01DX005 (ip), vehicle: other 105 % of control

CCO/C=C1\SC(=S)N(c2cccc(OC)c2)C1=O
inactive: [7] 96 % of control | [8] 106 % of control | [9] 101 % of control

CCNCc1cc(Nc2nc(NC3CCC(N(C)C)CC3)c3ccccc3n2)ccc1OC (stereo not given)
inactive: endpoint: mean survival time, dose: 5.0 mg/kg/injection, schedule: Q01DX001 (ip), vehicle: saline 97 % of control | endpoint: mean survival time, dose: 5.0 mg/kg/injection, schedule: Q01DX009 (ip), vehicle: saline 96 % of control | endpoint: mean survival time, dose: 10.0 mg/kg/injection, schedule: Q01DX001 (ip), vehicle: saline 92 % of control | endpoint: mean survival time, dose: 10.0 mg/kg/injection, schedule: Q01DX009 (ip), vehicle: saline 96 % of control | endpoint: mean survival time, dose: 20.0 mg/kg/injection, schedule: Q01DX001 (ip), vehicle: saline 97 % of control | endpoint: mean survival time, dose: 20.0 mg/kg/injection, schedule: Q01DX009 (ip), vehicle: saline 107 % of control

N/C(=N\N=C(c1ccccc1)c1ccccc1)N[N+](=O)[O-]
inactive: [7] 97 % of control | [8] 100 % of control | [9] 103 % of control

COC(c1ccccc1)C(C)O (stereo not given)
inactive: [3] 100 % of control | [4] 100 % of control | [5] 95 % of control

O=C1/C(=C/c2ccccc2)Cc2ccccc21
inactive: [4] 94 % of control | [5] 91 % of control | [6] 89 % of control

Cc1nc2c(ncn2C2OC3COP(=O)(O)OC3C2O)c2nccn12 (stereo not given)
inactive: endpoint: mean survival time, dose: 12.5 mg/kg/injection, schedule: Q01DX005 (ip), vehicle: water 95 % of control | endpoint: mean survival time, dose: 25.0 mg/kg/injection, schedule: Q01DX005 (ip), vehicle: water 100 % of control | endpoint: mean survival time, dose: 50.0 mg/kg/injection, schedule: Q01DX005 (ip), vehicle: water 90 % of control | endpoint: mean survival time, dose: 100.0 mg/kg/injection, schedule: Q01DX005 (ip), vehicle: water 106 % of control

CCOC(=O)c1ccc(NC/C(CN)=N/O)cc1
inactive: endpoint: mean survival time, dose: 75.0 mg/kg/injection, schedule: Q01DX001 (ip), vehicle: other 95 % of control | endpoint: mean survival time, dose: 150.0 mg/kg/injection, schedule: Q01DX001 (ip), vehicle: other 95 % of control

CC(N)CCc1ccccc1 (stereo not given)
inactive: [1] 102 % of control | [2] 100 % of control | [3] 102 % of control

COC(=O)C1OC([n+]2ccccc2)C(OC(C)=O)C(OC(C)=O)C1OC(C)=O (stereo not given)
inactive: endpoint: median survival time, dose: 12.5 mg/kg/injection, schedule: Q01DX005 (ip), vehicle: saline 103 % of control | endpoint: median survival time, dose: 25.0 mg/kg/injection, schedule: Q01DX005 (ip), vehicle: saline 107 % of control | endpoint: median survival time, dose: 50.0 mg/kg/injection, schedule: Q01DX005 (ip), vehicle: saline 100 % of control | endpoint: median survival time, dose: 100.0 mg/kg/injection, schedule: Q01DX005 (ip), vehicle: saline 107 % of control | endpoint: median survival time, dose: 200.0 mg/kg/injection, schedule: Q01DX005 (ip), vehicle: saline 103 % of control

From PubChem BioAssay AID256 (DTP/NCI, 2004)
